Experimental data reported in patent publication US4639452A, “Arylic derivatives of piperazine, the method of preparing same and their application in therapeutics” (Delalande S.A., priority 1982, dated 1987).

Key:
[1] = tested on: male SWISS-WEBSTER mice; test: mnesic retention test of exploratory activity (APELAB ACTIMETER); assay type: in vivo; details: re-measured after a week; for inhibition in vivo at 10 mg/kg: dose 10 mg/kg i.v.
[2] = approximate acute toxicity (MILLER and TAINTER); details: mouse, in vivo, mice
Protocol: The approximate acute toxicity is determined according to the method described by MILLER and TAINTER in Proc. Soc. Exp. Biol. Med. 57, 261 (1944).

[3] = Mus musculus, iv, 168 h, dose 1 mg/kg i.v., read-out: Mnesic test: % reduction of the exploratory activity
[4] = Mus musculus, iv, 168 h, dose 3 mg/kg i.v., read-out: Mnesic test: % reduction of the exploratory activity
[5] = Mus musculus, iv, 168 h, read-out: Mnesic test: % reduction of the exploratory activity

Compound | mortality ([2]; iv, dose 200 mg/kg i.v.) [%] | inhibition in vivo at 3 mg/kg [1, 4] [%] | further results
O=C(/C=C/c1ccc(Cl)cc1)N1CCN(CC(=O)N2CCCC2)CC1 [compound 47] | 0 |  | inhibition in vivo at 1 mg/kg [1, 3]: 26.5%
COc1cc(/C=C/C(=O)N2CCN(CC(=O)NCc3cc(OC)c(OC)c(OC)c3)CC2)cc(OC)c1OC [compound 29] | 0 | 9.9 | 
COc1cc(/C=C/C(=O)N2CCN(CC(N)=O)CC2)cc(OC)c1OC [Code number 11, trans-1-(3,4,5-trimethoxy)cinnamoyl 4-aminocarbonylmethyl piperazine] | 0 | 28.4 | 
O=C(/C=C/c1ccccc1)N1CCN(CC(=O)N2CCCC2)CC1 [compound 36] | 0 |  | inhibition in vivo at 10 mg/kg [1, 5]: 18.4%
O=C(/C=C/c1ccc2c(c1)OCO2)N1CCN(CC(=O)N2CCCC2)CC1 [compound 37] |  |  | inhibition in vivo at 1 mg/kg [1, 3]: 25.2%; mortality ([2]; ip, dose 400 mg/kg i.p.): 0%
O=C(/C=C/c1ccc(F)cc1)N1CCN(CC(=O)N2CCCC2)CC1 [compound 38] | 10 | 28.6 | 
O=C(/C=C/c1ccc2c(c1)OCO2)N1CCN(CC(=O)N2CCCCC2)CC1 [compound 55] |  | 18.7 | 
COc1cc(/C=C/C(=O)N2CCN(CC(=O)NC(C)C)CC2)ccc1O [compound 26] |  |  | inhibition in vivo at 10 mg/kg [1, 5]: 14.3%
trans-1-(3,4,5-trimethoxy)cinnamoyl 4-(2-hydroxy)ethyl piperazine maleate [Code number 2] |  |  | Mnesic test: % reduction of the exploratory activity ([1]; dose 3 mg/kg i.v.): 17.5%
trans-1-(3,4-methylenedioxy)cinnamoyl 4-pyrrolidinocarbonyl piperazine, hydrochloride [Code number 37] |  |  | Mnesic test: % reduction of the exploratory activity ([1]; dose 1 mg/kg i.v.): 14.7%
COc1cc(/C=C/C(=O)N2CCN(CC(=O)N3CCCC3)CC2)cc(OC)c1 [compound 43] |  |  | inhibition in vivo at 10 mg/kg [1, 5]: 23.8%
COc1ccccc1/C=C/C(=O)N1CCN(CC(=O)N2CCCC2)CC1 [compound 48] | 0 |  | inhibition in vivo at 30 mg/kg ([1]; Mus musculus, iv, 168 h, dose 30 mg/kg i.v., read-out: Mnesic test: % reduction of the exploratory activity): 26.1%
COc1ccc(OC)c(/C=C/C(=O)N2CCN(CC(=O)N3CCCC3)CC2)c1 [compound 49] |  |  | inhibition in vivo at 1 mg/kg [1, 3]: 15.7%; mortality ([2]; iv, dose 205 mg/kg i.v.): 50%
O=C(/C=C/c1ccc(Cl)cc1)N1CCN(CC(=O)N2CCCCC2)CC1 [compound 56] |  | 23.5 | 
COc1cc(/C=C/C(=O)N2CCN(CC(=O)NC3CCCC3)CC2)cc(OC)c1OC [compound 23] | 0 | 18.4 | 
O=C(/C=C/c1ccc(Cl)c(Cl)c1)N1CCN(CC(=O)N2CCCC2)CC1 [compound 40] |  | 28.9 | mortality ([2]; iv, dose 120 mg/kg i.v.): 50%
